Laboratory results reported in patent US12371404B2, “Fused bicyclic alkylene linked imidodicarbonimidic diamides, methods for synthesis, and uses in therapy” (NovaTarg, Inc., priority 2016, dated 2025).
Structures can show the parent of a compound that is named as a salt.

Assays:
human MATE1 = target: T1, human MATE1 (Homo sapiens, UniProt Q96FL8); experiment: Oxygen consumption rate (OCR) assay, HEK293 cells transfected with MATE1; conditions: for inhibition at 1000 µM: HEK293, read-out: Oxygen Consumption Rate (OCR), MATE 1, % Inhibition at 1000 μM test concentration
T1 sequence (Q96FL8 1-570): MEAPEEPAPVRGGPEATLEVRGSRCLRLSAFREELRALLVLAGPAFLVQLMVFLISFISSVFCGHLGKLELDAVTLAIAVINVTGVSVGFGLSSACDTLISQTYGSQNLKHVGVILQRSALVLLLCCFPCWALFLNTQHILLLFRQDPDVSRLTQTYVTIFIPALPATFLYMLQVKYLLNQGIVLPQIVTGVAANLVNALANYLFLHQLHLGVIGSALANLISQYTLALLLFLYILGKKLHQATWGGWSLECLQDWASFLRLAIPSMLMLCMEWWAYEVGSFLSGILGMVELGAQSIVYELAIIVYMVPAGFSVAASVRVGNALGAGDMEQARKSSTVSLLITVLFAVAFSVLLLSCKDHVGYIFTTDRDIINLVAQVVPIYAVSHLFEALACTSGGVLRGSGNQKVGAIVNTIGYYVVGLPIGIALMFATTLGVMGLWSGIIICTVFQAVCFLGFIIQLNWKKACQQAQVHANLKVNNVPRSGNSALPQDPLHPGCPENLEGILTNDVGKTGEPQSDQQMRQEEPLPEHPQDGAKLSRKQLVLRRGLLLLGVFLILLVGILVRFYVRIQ
Excerpt: The compounds of the present invention are similarly tested in an oxygen consumption rate (OCR) assay to evaluate the functional activity of test compounds in cells.
(§1) In brief, the assay uses HEK293 cells stably transfected with the human OCT1, OCT2, OCT3, PMAT, or MATE1 transporters to determine a compound's relative transporter selectivity and its effect on the rate of oxygen consumption relative to control (Neo) cells. The MitoXpress Xtra oxygen-sensitive fluorophore is used to monitor oxygen consumption rates in the presence and absence of compound treatments. The analogs were tested at eight (8) different concentrations in triplicate to determine a relative IC50 value.
(§2) A summary description of the protocol is as follows:
(§3) Cells were incubated overnight to allow attachment. The outer columns (1 and 12) are not seeded with cells, as controls. The next day, plating medium was removed and replaced with 150 μL of assay medium (DMEM/F12 (PRF), 5% FBS, antibiotics) containing compound dilutions. A 3-fold serial dilution was prepared in the assay medium and transferred to the empty wells. The outer columns and column 11 received 150 μL of assay medium only. 10 μL of MitoXpress Xtra reagent was added to each test well, and 100 μL of pre-warmed mineral oil was overlayed in each well to create a seal. Dual read time-resolved fluorescence (BMG FluoStar Galaxy reader) was measured over 2 hours with measurements taken every 2 minutes. Excitation is 340 nm, Emission is 650 nm. For lifetime analysis, two measurements per well were taken: 1) delay of 30 μs, with a window of 30 μs; and 2) delay of 70 μs with a window of 30 μs. Background TRF values from A1-D1 were subtracted from all readings. A ratiometric analysis was performed to determine changes in the Lifetime fluorescence signal:Lifetime (μs) [T]=(D2−D1)/ln(W1/W2), where D is delay; W is fluorescence window value at each time point. Lifetime slopes were calculated using each Lifetime measurement over time. IC50 values were determined by plotting lifetime slope values vs. compound concentration.

human PMAT = target: T2, human PMAT (Homo sapiens, UniProt Q7RTT9); experiment: Oxygen consumption rate (OCR) assay, HEK293 cells transfected with PMAT; format: cell-based; conditions: HEK293 cells with human PMAT; 10 μM
T2 construct: expressed in transfected cells; host or cells: HEK293
T2 sequence (Q7RTT9 1-530): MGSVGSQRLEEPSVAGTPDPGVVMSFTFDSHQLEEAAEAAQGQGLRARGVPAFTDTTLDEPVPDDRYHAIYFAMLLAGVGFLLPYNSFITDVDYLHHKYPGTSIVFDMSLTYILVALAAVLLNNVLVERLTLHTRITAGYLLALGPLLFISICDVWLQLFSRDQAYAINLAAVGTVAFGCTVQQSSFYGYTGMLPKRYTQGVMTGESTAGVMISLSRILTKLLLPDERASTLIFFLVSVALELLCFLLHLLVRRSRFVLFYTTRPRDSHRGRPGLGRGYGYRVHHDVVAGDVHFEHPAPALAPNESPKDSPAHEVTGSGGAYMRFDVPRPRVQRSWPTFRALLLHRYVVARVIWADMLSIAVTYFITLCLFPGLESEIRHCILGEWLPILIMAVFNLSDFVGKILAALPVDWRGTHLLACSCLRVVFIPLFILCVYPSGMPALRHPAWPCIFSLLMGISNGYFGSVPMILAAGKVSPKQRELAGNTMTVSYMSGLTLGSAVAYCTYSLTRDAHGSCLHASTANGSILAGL
Excerpt: (§4) Diabetologia 2011, 54 (12): 3101-3110, each incorporated by reference with regard to such testing. The compounds of the present invention are similarly tested in an oxygen consumption rate (OCR) assay to evaluate the functional activity of test compounds in cells.
as §1, §2
as §3, with “HEK293 cells transformed with human organic cation transporters were plated in collagen coated, 96-well black-walled microclear plates (Greiner-Bio 1, #655956) at 60,000 cells per well in growth medium (DMEM (LG), 10% FBS, 400 μg/ml G418). Cells” for “Cells”

control (Neo) cells = experiment: Oxygen consumption rate (OCR) assay, control (Neo) HEK293 cells; format: cell-based; conditions: Homo sapiens; control (Neo) HEK293 cells; MitoXpress Xtra, 2 hours; read-out: Oxygen Consumption Rate (OCR) IC50, Neo
Excerpt: as §4, §1, §2
as §3, with “HEK293 cells transformed with human organic cation transporters were plated in collagen coated, 96-well black-walled microclear plates (Greiner-Bio 1, #655956) at 60,000 cells per well in growth medium (DMEM (LG), 10% FBS, 400 μg/ml G418). Cells” for “Cells”

SMILES | IC50 (human MATE1) [µM] | inhibition at 10 µM (human PMAT) [%] | IC50 (control (Neo) cells) [µM] | inhibition at 1000 µM (human MATE1) [%]
Cn1cc(CCNC(=N)NC(=N)N)c2cc(F)ccc21 [Ex 4, 1-[2-(5-fluoro-1-methyl-1H-indol-3-yl)ethyl]imidodicarbonimide diamide] | 1570 | 41 | 678 | 
CC(Cc1c[nH]c2ccc(F)cc12)NC(=N)NC(=N)N (stereo not shown) [Ex 5, 1-[1-(5-fluoro-1H-indol-3-yl)propan-2-yl]imidodicarbonimide diamide] |  | 12 | 1880 | 65
CC(Cc1cn(C)c2ccc(F)cc12)NC(=N)NC(=N)N (stereo not shown) [Ex 6, 1-[1-(5-fluoro-1-methyl-1H-indol-3-yl)propan-2-yl]imidodicarbonimide Diamide] |  | 8 | > 10000 | 18
N=C(N)NC(=N)NCCCc1c[nH]c2ccccc12 [Ex 7, hydrochloride] |  | 7 | > 10000 | 36
CC(C)(CNC(=N)NC(=N)N)c1c[nH]c2ccccc12 [Ex 8] |  | 20 | > 1000 | 31
N=C(N)NC(=N)NCCc1c[nH]c2ncc(Cl)cc12 [Ex 40, 1-(2-(5-chloro-1H-pyrrolo[2,3-b]pyridin-3-yl)ethyl)imidodicarbonimide diamide, trifluoroacetic acid salt] | 1470 |  | > 1000 | 
Cc1[nH]c2ncccc2c1CCNC(=N)NC(=N)N [Ex 44, 1-(2-(2-methyl-1H-pyrrolo[2,3-b]pyridin-3-yl)ethyl)imidodicarbonimide diamide, trifluoroacetic acid salt] | 474 |  | 1660 | 
N=C(N)NC(=N)NCCc1c[nH]c2nccc(Cl)c12 [Ex 46, 1-(2-(4-chloro-1H-pyrrolo[2,3-b]pyridin-3-yl)ethyl)imidodicarbonimide diamide, trifluoroacetic acid salt] | 335 |  | 2640 | 
N=C(N)NC(=N)NCCc1c[nH]c2ccc(F)c(Cl)c12 [Ex 47, 1-[2-(4-chloro-5-fluoro-1H-indol-3-yl)ethyl]imidodicarbonimide diamide, trifluoroacetic acid salt] | 22 |  | 101 | 
N=C(N)NC(=N)NCCc1c[nH]c2ccc(Cl)c(F)c12 [Ex 49, 1-[2-(5-chloro-4-fluoro-1H-indol-3-yl)ethyl]imidodicarbonimide diamide, trifluoroacetic acid salt] | 64 |  | 155 | 
N=C(N)NC(=N)NCCc1c[nH]c2cc(F)c(F)c(F)c12 [Ex 50, 1-[2-(4,5,6-trifluoro-1H-indol-3-yl)ethyl]imidodicarbonimide diamide, trifluoroacetic acid salt] | 102 |  | 181 | 
N=C(N)NC(=N)NCCc1c[nH]c2c(F)c(Cl)ccc12 [Ex 51, 1-[2-(6-chloro-7-fluoro-1H-indol-3-yl)ethyl]imidodicarbonimide diamide, trifluoroacetic acid salt] | 597 |  | 542 | 
Cn1cc(CCNC(=N)NC(=N)N)c2ccc(F)cc21 [Ex 52, 1-[2-(6-fluoro-1-methyl-1H-indol-3-yl)ethyl]imidodicarbonimide diamide, trifluoroacetic acid salt] | 32 |  | 388 | 
CN(C)C(=N)NC(=N)NCCc1c[nH]c2ccc(Cl)cc12 [Ex 53, 3-(2-(5-chloro-1H-indol-3-yl)ethyl)-1,1-dimethyl imidodicarbonimide diamide trifluoroacetic acid salt] | 398 |  | 422 | 
N=C(N)NC(=N)NCCc1c[nH]c2cc(F)c(Cl)cc12 [Ex 58, 1-[2-(5-chloro-6-fluoro-1H-indol-3-yl)ethyl]imidodicarbonimide diamide, trifluoroacetic acid salt] | 35 |  | 191 | 
Cc1cccc2[nH]cc(CCNC(=N)NC(=N)N)c12 [Ex 60, 1-[2-(4-methyl-1H-indol-3-yl)ethyl]imidodicarbonimide diamide, trifluoroacetic acid salt] | 636 |  | 1640 | 
N=C(N)NC(=N)NCCc1c[nH]c2cc(F)cc(F)c12 [Ex 61, 1-[2-(4,6-difluoro-1H-indol-3-yl)ethyl]imidodicarbonimide diamide, trifluoroacetic acid salt] | 62 |  | 333 | 
CC(CNC(=N)NC(=N)N)c1c[nH]c2cc(F)ccc12 (stereo not shown) [Ex 62, 1-[2-(6-fluoro-1H-indol-3-yl)propyl]imidodicarbonimide diamide, trifluoroacetic acid salt] | 3430 |  | 3430 | 
CC(C)(CNC(=N)NC(=N)N)c1c[nH]c2cc(F)ccc12 [Ex 63, 1-[2-(6-fluoro-1H-indol-3-yl)-2-methylpropyl]imidodicarbonimide diamide, trifluoroacetic acid salt] | 3790 |  | 1750 | 
N=C(N)NC(=N)NCCc1c[nH]c2c(F)cc(Cl)cc12 [Ex 64, 1-[2-(5-chloro-7-fluoro-1H-indol-3-yl)ethyl]imidodicarbonimide diamide, trifluoroacetic acid salt] | 370 |  | 282 | 
CN(CCc1c[nH]c2cc(F)ccc12)C(=N)NC(=N)N [Ex 65, 1-methyl-1-[2-(6-fluoro-1H-indol-3-yl)ethyl]imidodicarbonimide diamide, trifluoroacetic acid salt] | 354 |  | 8410 | 
CN(C)C(=N)NC(=N)NCCc1c[nH]c2nc(F)ccc12 [Ex. 54, 3-(2-(6-fluoro-1H-pyrrolo[2,3-b]pyridin-3-yl)ethyl)-1,1-dimethyl imidodicarbonimide diamide trifluoroacetic acid salt] | 4950 |  | 4600 | 
